Results: PubChem BioAssay AID206 (DTP/NCI, 2004)
Values joined by “and” are separate entries in the source; they are usually repeats but may differ in a detail not shown here. Identical values can stand only once. Records with an inconclusive call do not appear.

System: nude mice, HT29 intrarenal xenograft, tumor weight T/C
Test: NCI In Vivo Anticancer Drug Screen. Data for tumor model HT29;CX-1 Human Adenocarcinoma (MER+) (intrarenal inoculation) in NU/NU Swiss (nude) mice
Settings: endpoint: mean tumor weight change, higher = larger tumour
Method in brief: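 Mice with transplanted tumors are dosed with compound while controls get vehicle only. Survival or tumor burden is then assessed per group, and the treated value is expressed relative to control.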

[1] = dose: 75.0 mg/kg/injection, schedule: Q04DX004 (sc), vehicle: Klucel (hydroxypropylcellulose) (HPC)
[2] = dose: 300.0 mg/kg/injection, schedule: Q04DX004 (sc), vehicle: Klucel (hydroxypropylcellulose) (HPC)
[3] = dose: 18.75 mg/kg/injection, schedule: Q04DX004 (sc), vehicle: saline
[4] = dose: 1200.0 mg/kg/injection, schedule: Q04DX004 (sc), vehicle: saline
[5] = dose: 300.0 mg/kg/injection, schedule: Q04DX004 (sc), vehicle: suspension in saline
[6] = dose: 600.0 mg/kg/injection, schedule: Q04DX004 (sc), vehicle: suspension in saline
[7] = dose: 1200.0 mg/kg/injection, schedule: Q04DX004 (sc), vehicle: suspension in saline

CC(C)(C)N1CC1CNC(=O)C(=O)NCC1CN1C(C)(C)C (centres undefined)
T/C (dose: 25.0 mg/kg/injection, schedule: Q04DX004 (sc), vehicle: saline with Tween-80): 109 % of control

c1ccc2c(NCCCCCCCCNc3c4ccccc4nc4ccccc34)c3ccccc3nc2c1
T/C (dose: 10.0 mg/kg/injection, schedule: Q01DX010 (sc), vehicle: Klucel (hydroxypropylcellulose) (HPC)): 67 % of control | T/C (dose: 20.0 mg/kg/injection, schedule: Q01DX010 (sc), vehicle: Klucel (hydroxypropylcellulose) (HPC)): 44 % of control | T/C (dose: 40.0 mg/kg/injection, schedule: Q01DX010 (sc), vehicle: Klucel (hydroxypropylcellulose) (HPC)): 82 % of control

BrCC[Se]c1ccccc1
T/C (dose: 200.0 mg/kg/injection, schedule: Q04DX004 (sc), vehicle: saline with Tween-80): 16 % of control

CCN(CC)c1ccc2cc(-c3nc4ccccc4n3C)c(=O)oc2c1
T/C [1]: 82 % of control | T/C (dose: 150.0 mg/kg/injection, schedule: Q04DX004 (sc), vehicle: Klucel (hydroxypropylcellulose) (HPC)): 67 % of control | T/C [2]: 88 % of control

O=NN(CCCl)C(=O)NC1CCCCC1
T/C (dose: 8.0 mg/kg/injection, schedule: Q01DX010 (sc), vehicle: saline with Tween-80): 85 % of control | T/C (dose: 8.0 mg/kg/injection, schedule: Q04DX004 (sc), vehicle: carboxymethylcellulose (CMC)): 99 % of control | T/C (dose: 16.0 mg/kg/injection, schedule: Q01DX010 (sc), vehicle: saline with Tween-80): 42 % of control | T/C (dose: 16.0 mg/kg/injection, schedule: Q04DX004 (sc), vehicle: carboxymethylcellulose (CMC)): 86 % of control | T/C (dose: 25.0 mg/kg/injection, schedule: Q04DX004 (sc), vehicle: Klucel (hydroxypropylcellulose) (HPC)): 63 % of control | T/C (dose: 32.0 mg/kg/injection, schedule: Q01DX010 (sc), vehicle: saline with Tween-80): 77 % of control | T/C (dose: 32.0 mg/kg/injection, schedule: Q04DX004 (sc), vehicle: carboxymethylcellulose (CMC)): 89 % of control | T/C (dose: 50.0 mg/kg/injection, schedule: Q04DX004 (sc), vehicle: Klucel (hydroxypropylcellulose) (HPC)): 116 % of control | T/C (dose: 64.0 mg/kg/injection, schedule: Q04DX004 (sc), vehicle: carboxymethylcellulose (CMC)): 101 % of control

Cc1ncc(CNC(=O)N(CCCl)N=O)c(N)n1
T/C (dose: 9.38 mg/kg/injection, schedule: Q04DX004 (sc), vehicle: saline): 55 % of control | T/C [3]: 39 % of control

N#CC(=C1SCS1)[N+](=O)[O-]
T/C (dose: 12.0 mg/kg/injection, schedule: Q04DX004 (sc), vehicle: saline): 22 % of control | T/C (dose: 24.0 mg/kg/injection, schedule: Q04DX004 (sc), vehicle: saline): 154 % of control | T/C (dose: 48.0 mg/kg/injection, schedule: Q04DX004 (sc), vehicle: saline): 32 % of control | T/C (dose: 96.0 mg/kg/injection, schedule: Q04DX004 (sc), vehicle: saline): 45 % of control

CN1c2c(nc(N)[nH]c2=O)NCC1CCNc1ccc(C(=O)NC(CCC(=O)O)C(=O)O)cc1 (centres undefined)
T/C (dose: 400.0 mg/kg/injection, schedule: Q01DX010 (sc), vehicle: saline): 33 % of control | T/C (dose: 800.0 mg/kg/injection, schedule: Q01DX010 (sc), vehicle: saline): 51 % of control

COc1cccc2c1C(=O)c1c(O)c3c(c(O)c1C2=O)C[C@@](O)(/C(C)=N\NC(=O)CO)C[C@@H]3OC1CC(N)C(O)C(C)O1 (some centres undefined)
T/C (dose: 15.63 mg/kg/injection, schedule: Q04DX004 (sc), vehicle: saline): 52 % of control | T/C (dose: 31.25 mg/kg/injection, schedule: Q04DX004 (sc), vehicle: saline): 16 % of control | T/C (dose: 62.5 mg/kg/injection, schedule: Q04DX004 (sc), vehicle: saline): 18 % of control

CCc1ccc(C2=C(O)C(=O)C(c3ccccc3)=C(O)C2=O)cc1
T/C [1]: 159 % of control

COc1cc(C[C@H]2c3cc(OC)c(OC)cc3CCN2C)c(Oc2cc3c(cc2OC)-c2c(OC)c(OC)cc4c2[C@H](C3)N(C)CC4)cc1OC
T/C (dose: 100.0 mg/kg/injection, schedule: Q01DX010 (sc), vehicle: saline with Tween-80): 100 % of control | T/C (dose: 200.0 mg/kg/injection, schedule: Q01DX010 (sc), vehicle: saline with Tween-80): 45 % of control | T/C (dose: 400.0 mg/kg/injection, schedule: Q01DX010 (sc), vehicle: saline with Tween-80): 67 % of control | T/C (dose: 800.0 mg/kg/injection, schedule: Q01DX010 (sc), vehicle: saline with Tween-80): 63 % of control

C=C(NC(=O)C(=C)NC(=O)c1csc(C2=NC3c4csc(n4)C4NC(=O)c5csc(n5)C(C(C)(O)C(C)O)NC(=O)C5CSC(=N5)/C(=C/C)NC(=O)C(C(C)O)NC(=O)c5csc(n5)C3(CC2)NC(=O)C(C)NC(=O)C(=C)NC(=O)C(C)NC(=O)C(C(C)CC)NC2C=Cc3c(C(C)O)cc(nc3C2O)C(=O)OC4C)n1)C(N)=O (centres undefined)
T/C (dose: 200.0 mg/kg/injection, schedule: Q01DX010 (sc), vehicle: Klucel (hydroxypropylcellulose) (HPC)): 34 % of control | T/C (dose: 800.0 mg/kg/injection, schedule: Q01DX010 (sc), vehicle: Klucel (hydroxypropylcellulose) (HPC)): 27 % of control and 49 % of control | T/C (dose: 3200.0 mg/kg/injection, schedule: Q01DX010 (sc), vehicle: Klucel (hydroxypropylcellulose) (HPC)): 50 % of control

CC(=O)CC(=O)CCC(=O)O
T/C (dose: 150.0 mg/kg/injection, schedule: Q04DX004 (sc), vehicle: saline): 111 % of control | T/C (dose: 600.0 mg/kg/injection, schedule: Q04DX004 (sc), vehicle: saline): 113 % of control | T/C [4]: 104 % of control

O=C(O)CSc1c(Cl)c(=O)oc2ccc(Cl)cc12
T/C [2]: 99 % of control

COCC(O)Cn1ccnc1[N+](=O)[O-] (centres undefined)
T/C [5]: 86 % of control | T/C [6]: 80 % of control | T/C [7]: 75 % of control

Nc1nncs1
T/C (dose: 3.13 mg/kg/injection, schedule: Q01DX010 (sc), vehicle: saline): 97 % of control | T/C (dose: 12.5 mg/kg/injection, schedule: Q01DX010 (sc), vehicle: saline): 84 % of control

c1cc[c]([Sn]([NH]c2ncnc3[nH]cnc23)([NH]c2ncnc3[nH]cnc23)[c]2ccccc2)cc1
T/C (dose: 150.0 mg/kg/injection, schedule: Q04DX004 (sc), vehicle: suspension in saline): 89 % of control | T/C [5]: 47 % of control | T/C [6]: 28 % of control | T/C [7]: 124 % of control

S=c1[nH]cc2cnccn12
T/C (dose: 450.0 mg/kg/injection, schedule: Q04DX004 (sc), vehicle: saline with Tween-80): 97 % of control | T/C (dose: 900.0 mg/kg/injection, schedule: Q04DX004 (sc), vehicle: saline with Tween-80): 107 % of control | T/C (dose: 1800.0 mg/kg/injection, schedule: Q04DX004 (sc), vehicle: saline with Tween-80): 117 % of control

CCCCCCCCCCC(OC(C)=O)C1CCC(C2CCC(C(O)CCCCCCCCCCCCC3C=C(C)OC3=O)O2)O1 (centres undefined)
T/C (dose: 25.0 mg/kg/injection, schedule: Q04DX004 (sc), vehicle: water): 119 % of control | T/C (dose: 50.0 mg/kg/injection, schedule: Q04DX004 (sc), vehicle: water): 92 % of control

N=C(N)CCCCCCCCC(=N)N
T/C [3]: 101 % of control

Nc1nc(=S)c2ncn(C3CC(O)C(CO)O3)c2[nH]1 (centres undefined)
T/C (dose: 1.8 mg/kg/injection, schedule: Q04DX004 (sc), vehicle: saline with Tween-80): 119 % of control | T/C (dose: 3.75 mg/kg/injection, schedule: Q04DX004 (sc), vehicle: saline with Tween-80): 105 % of control | T/C (dose: 7.5 mg/kg/injection, schedule: Q04DX004 (sc), vehicle: saline with Tween-80): 107 % of control | T/C (dose: 100.0 mg/kg/injection, schedule: Q01DX010 (sc), vehicle: Klucel (hydroxypropylcellulose) (HPC)): 114 % of control

CC(=O)Oc1c(C)[nH]ccc1=O
T/C [6]: 112 % of control | T/C [7]: 77 % of control

CCCCN(CCCC)C(Cl)=Nc1ccccc1
T/C (dose: 100.0 mg/kg/injection, schedule: Q04DX004 (sc), vehicle: other): 103 % of control | T/C (dose: 200.0 mg/kg/injection, schedule: Q04DX004 (sc), vehicle: other): 100 % of control | T/C (dose: 400.0 mg/kg/injection, schedule: Q04DX004 (sc), vehicle: other): 96 % of control | T/C (dose: 800.0 mg/kg/injection, schedule: Q04DX004 (sc), vehicle: other): 91 % of control

Clc1ccc(C(c2ccccc2Cl)C(Cl)Cl)cc1 (centres undefined)
T/C [4]: 99 % of control | T/C (dose: 2400.0 mg/kg/injection, schedule: Q04DX004 (sc), vehicle: saline): 64 % of control | T/C (dose: 4800.0 mg/kg/injection, schedule: Q04DX004 (sc), vehicle: saline): 77 % of control | T/C (dose: 9600.0 mg/kg/injection, schedule: Q04DX004 (sc), vehicle: saline): 67 % of control

CCOC(=O)Nc1cc2c(c(N)n1)N=C(CN(C)c1ccccc1)CN2
T/C (dose: 6.0 mg/kg/injection, schedule: Q01DX010 (sc), vehicle: Klucel (hydroxypropylcellulose) (HPC)): 35 % of control | T/C (dose: 12.0 mg/kg/injection, schedule: Q01DX010 (sc), vehicle: Klucel (hydroxypropylcellulose) (HPC)): 45 % of control | T/C (dose: 24.0 mg/kg/injection, schedule: Q01DX010 (sc), vehicle: Klucel (hydroxypropylcellulose) (HPC)): 53 % of control

COc1c(CNC(=O)CCl)cc2[nH]c(C)cc2c1CNC(=O)CCl
T/C [2]: 192 % of control | T/C (dose: 600.0 mg/kg/injection, schedule: Q04DX004 (sc), vehicle: Klucel (hydroxypropylcellulose) (HPC)): 124 % of control
